The record followed here is patent US11827693B2, “Composition and methods based on neutralizing antibodies delivered intranasally for enhanced therapeutic efficacy” (priority 2013, dated 2023).

The test deals with H1 influenza virus A/Puerto Rico/8/1934 (PR8). Further details: species or system BALB/c mice. To be noted: mouse, in vivo.

Take `CCOC(=O)C1=C[C@@H](OC(CC)CC)[C@H](NC(C)=O)[C@@H](N)C1` [Tamiflu]: the protection entry is given as “completely ineffective in protection”.
